The source of these data is patent US12404241B2 (Celgene Corporation, priority 2018, dated 2025).

The structures appear in SMILES notation.

The test has as its target T1, AR (Homo sapiens, UniProt P10275).
T1 construct: endogenous in cells; host or cells: VCaP cells
T1 sequence (P10275 1-920): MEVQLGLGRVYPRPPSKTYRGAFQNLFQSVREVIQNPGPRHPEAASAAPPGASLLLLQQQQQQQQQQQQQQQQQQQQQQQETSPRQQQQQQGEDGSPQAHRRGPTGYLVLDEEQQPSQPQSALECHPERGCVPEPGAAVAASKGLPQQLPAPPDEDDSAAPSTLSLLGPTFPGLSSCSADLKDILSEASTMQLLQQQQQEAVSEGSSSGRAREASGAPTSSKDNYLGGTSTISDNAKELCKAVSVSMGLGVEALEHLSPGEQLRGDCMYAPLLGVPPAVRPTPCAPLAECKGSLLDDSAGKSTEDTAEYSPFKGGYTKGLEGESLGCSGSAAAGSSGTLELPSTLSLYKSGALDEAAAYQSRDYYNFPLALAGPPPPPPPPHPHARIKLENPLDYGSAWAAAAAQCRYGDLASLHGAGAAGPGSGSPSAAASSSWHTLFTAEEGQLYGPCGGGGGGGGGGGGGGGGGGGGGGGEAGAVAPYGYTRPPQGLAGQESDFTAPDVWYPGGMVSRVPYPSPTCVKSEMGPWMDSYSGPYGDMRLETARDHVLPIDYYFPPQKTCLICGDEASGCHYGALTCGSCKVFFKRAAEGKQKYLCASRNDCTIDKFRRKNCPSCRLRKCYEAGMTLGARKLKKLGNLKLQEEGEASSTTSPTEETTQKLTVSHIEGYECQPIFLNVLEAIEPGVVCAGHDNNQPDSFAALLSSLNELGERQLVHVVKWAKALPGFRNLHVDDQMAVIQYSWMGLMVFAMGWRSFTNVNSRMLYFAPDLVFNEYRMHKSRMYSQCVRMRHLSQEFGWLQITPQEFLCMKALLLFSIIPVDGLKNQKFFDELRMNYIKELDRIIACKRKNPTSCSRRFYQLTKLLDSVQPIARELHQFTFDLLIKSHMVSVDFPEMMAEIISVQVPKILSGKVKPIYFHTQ
Briefly: VCAP AR Degradation Assay. The class given is cell-based. As to conditions: for Y (AR degradation efficiency, % of DMSO control): class symbols *; for DC50: class symbols A-C, read-out: DC50. A digest of the protocol: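 Compounds were plated as 10-point 1:3 series reaching 5 μM final, then VCaP cells were seeded onto them and incubated 24 h at 37 °C. Cells were lysed cold, and total AR was measured by sandwich ELISA relative to 0.1% DMSO wells.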

In the case of `CCc1cc(N2C(=S)N(c3cnc(C#N)c(C(F)(F)F)c3)C(=O)C2(C)C)ccc1OCCN1CCN(CC(=O)Nc2cc(F)cc(NC3CCC(=O)NC3=O)c2)CC1` (stereo not shown) [Example 63, 2-(4-(2-(4-(3-(6-cyano-5-(trifluoromethyl)pyridin-3-yl)-5,5-dimethyl-4-oxo-2-thioxoimidazolidin-1-yl)-2-ethylphenoxy)ethyl)piperazin-1-yl)-N-(3-(2,6-dioxopiperidin-3-ylamino)-5-fluorophenyl)acetamide], the “Y (AR degradation efficiency, % of DMSO control)” value is “* (0<Y<=25%)” and the DC50 (in general, the concentration giving 50% degradation) was less than 100 nM.

For the compound `CCc1cc(N2C(=S)N(c3cnc(C#N)c(C(F)(F)F)c3)C(=O)C2(C)C)ccc1OCCN1CCN(CC(=O)Nc2cc(NC3CCC(=O)NC3=O)ccc2F)CC1` (stereo not shown) [Example 64, 2-(4-(2-(4-(3-(6-cyano-5-(trifluoromethyl)pyridin-3-yl)-5,5-dimethyl-4-oxo-2-thioxoimidazolidin-1-yl)-2-ethylphenoxy)ethyl)piperazin-1-yl)-N-(5-(2,6-dioxopiperidin-3-ylamino)-2-fluorophenyl)acetamide], the “Y (AR degradation efficiency, % of DMSO control)” value is reported as “* (0<Y<=25%)” and the DC50 was less than 100 nM.

As to `CC1(C)C(=O)N(c2ccc(C#N)c(C(F)(F)F)c2)C(=S)N1c1ccc(OCCN2CCN(CC(=O)Nc3cc(C#N)cc(NC4CCC(=O)NC4=O)c3)CC2)c(F)c1` (stereo not shown) [Example 65, 2-(4-(2-(4-(3-(4-cyano-3-(trifluoromethyl)phenyl)-5,5-dimethyl-4-oxo-2-thioxoimidazolidin-1-yl)-2-fluorophenoxy)ethyl)piperazin-1-yl)-N-(3-cyano-5-(2,6-dioxopiperidin-3-ylamino)phenyl)acetamide], the “Y (AR degradation efficiency, % of DMSO control)” value was “** (25%<Y<=35%)” and the DC50 is 100 to 500 nM.

Take `CC1(C)C(=O)N(c2cnc(C#N)c(C(F)(F)F)c2)C(=S)N1c1ccc(OCCN2CCN(CC(=O)Nc3cc(NC4CCC(=O)NC4=O)ccc3F)CC2)c(CC(F)F)c1` (stereo not shown) [Example 66, 2-(4-(2-(4-(3-(6-cyano-5-(trifluoromethyl)pyridin-3-yl)-5,5-dimethyl-4-oxo-2-thioxoimidazolidin-1-yl)-2-(2,2-difluoroethyl)phenoxy)ethyl)piperazin-1-yl)-N-(5-(2,6-dioxopiperidin-3-ylamino)-2-fluorophenyl)acetamide]: the “Y (AR degradation efficiency, % of DMSO control)” value is listed as “* (0<Y<=25%)” and the DC50 is less than 100 nM.

For the compound `CC1(C)C(=O)N(c2cnc(C#N)c(C(F)(F)F)c2)C(=S)N1c1ccc(OCCN2CCN(CC(=O)Nc3cc(Cl)cc(NC4CCC(=O)NC4=O)c3)CC2)c(CC(F)F)c1` (stereo not shown) [Example 67, N-(3-chloro-5-(2,6-dioxopiperidin-3-ylamino)phenyl)-2-(4-(2-(4-(3-(6-cyano-5-(trifluoromethyl)pyridin-3-yl)-5,5-dimethyl-4-oxo-2-thioxoimidazolidin-1-yl)-2-(2,2-difluoroethyl)phenoxy)ethyl)piperazin-1-yl)acetamide], the “Y (AR degradation efficiency, % of DMSO control)” value was “* (0<Y<=25%)” and the DC50 was less than 100 nM.

With `CC1(C)C(=O)N(c2cnc(C#N)c(C(F)(F)F)c2)C(=S)N1c1ccc(OCCN2CCN(CC(=O)Nc3cc(F)cc(NC4CCC(=O)NC4=O)c3)CC2)c(CC(F)F)c1` (stereo not shown) [Example 68, 2-(4-(2-(4-(3-(6-cyano-5-(trifluoromethyl)pyridin-3-yl)-5,5-dimethyl-4-oxo-2-thioxoimidazolidin-1-yl)-2-(2,2-difluoroethyl)phenoxy)ethyl)piperazin-1-yl)-N-(3-(2,6-dioxopiperidin-3-ylamino)-5-fluorophenyl)acetamide], the “Y (AR degradation efficiency, % of DMSO control)” value is on record as “* (0<Y<=25%)” and the DC50 was less than 100 nM.

In the case of `CCc1cc(N2C(=S)N(c3ccc(C#N)c(C(F)(F)F)c3)C(=O)C2(C)C)cnc1OCCN1CCN(CC(=O)Nc2cc(Cl)cc(NC3CCC(=O)NC3=O)c2)CC1` (stereo not shown) [Example 69, N-(3-chloro-5-(2,6-dioxopiperidin-3-ylamino)phenyl)-2-(4-(2-(5-(3-(4-cyano-3-(trifluoromethyl)phenyl)-5,5-dimethyl-4-oxo-2-thioxoimidazolidin-1-yl)-3-ethylpyridin-2-yloxy)ethyl)piperazin-1-yl)acetamide], the “Y (AR degradation efficiency, % of DMSO control)” value is given as “* (0<Y<=25%)” and the DC50 is less than 100 nM.

Regarding `CCc1cc(N2C(=S)N(c3ccc(C#N)c(C(F)(F)F)c3)C(=O)C2(C)C)ccc1OCCN1CCN(CC(=O)Nc2cc(NC3CCC(=O)NC3=O)cc(F)c2F)CC1` (stereo not shown) [Example 70, 2-(4-(2-(4-(3-(4-cyano-3-(trifluoromethyl)phenyl)-5,5-dimethyl-4-oxo-2-thioxoimidazolidin-1-yl)-2-ethylphenoxy)ethyl)piperazin-1-yl)-N-(5-(2,6-dioxopiperidin-3-ylamino)-2,3-difluorophenyl)acetamide], the “Y (AR degradation efficiency, % of DMSO control)” value was “* (0<Y<=25%)” and the DC50 is less than 100 nM.

As for `CC1(C)C(=O)N(c2cnc(C#N)c(C(F)(F)F)c2)C(=S)N1c1ccc(OCCN2CCN(CC(=O)Nc3cc(NC4CCC(=O)NC4=O)ccc3F)CC2)c(CCF)c1` (stereo not shown) [Example 71, 2-(4-(2-(4-(3-(6-cyano-5-(trifluoromethyl)pyridin-3-yl)-5,5-dimethyl-4-oxo-2-thioxoimidazolidin-1-yl)-2-(2-fluoroethyl)phenoxy)ethyl)piperazin-1-yl)-N-(5-(2,6-dioxopiperidin-3-ylamino)-2-fluorophenyl)acetamide], the “Y (AR degradation efficiency, % of DMSO control)” value was “* (0<Y<=25%)” and the DC50 was less than 100 nM.

`CC1(C)C(=O)N(c2cnc(C#N)c(C(F)(F)F)c2)C(=S)N1c1ccc(OCCN2CCN(CC(=O)Nc3cc(Cl)cc(NC4CCC(=O)NC4=O)c3)CC2)c(CCF)c1` (stereo not shown) [Example 72, N-(3-chloro-5-(2,6-dioxopiperidin-3-ylamino)phenyl)-2-(4-(2-(4-(3-(6-cyano-5-(trifluoromethyl)pyridin-3-yl)-5,5-dimethyl-4-oxo-2-thioxoimidazolidin-1-yl)-2-(2-fluoroethyl)phenoxy)ethyl)piperazin-1-yl)acetamide]: the “Y (AR degradation efficiency, % of DMSO control)” value is on record as “* (0<Y<=25%)” and the DC50 is less than 100 nM.

`CCc1cc(N2C(=S)N(c3ccc(C#N)c(C(F)(F)F)c3)C(=O)C2(C)C)ccc1OCCN1CCN(CC(=O)Nc2cc(F)cc(NC3CCC(=O)NC3=O)c2)C(C)(C)C1` (stereo not shown) [Example 73, 2-(4-(2-(4-(3-(4-cyano-3-(trifluoromethyl)phenyl)-5,5-dimethyl-4-oxo-2-thioxoimidazolidin-1-yl)-2-ethylphenoxy)ethyl)-2,2-dimethylpiperazin-1-yl)-N-(3-(2,6-dioxopiperidin-3-ylamino)-5-fluorophenyl)acetamide]: the “Y (AR degradation efficiency, % of DMSO control)” value is listed as “* (0<Y<=25%)” and the DC50 was less than 100 nM.

As for `CCc1cc(N2C(=S)N(c3cnc(C#N)c(C(F)(F)F)c3)C(=O)C2(C)C)ccc1OCCN1CCN(CC(=O)Nc2cc(Cl)cc(NC3CCC(=O)NC3=O)c2)[C@H](C)C1` (stereo partly drawn) [Example 74, N-(3-chloro-5-(2,6-dioxopiperidin-3-ylamino)phenyl)-2-((R)-4-(2-(4-(3-(6-cyano-5-(trifluoromethyl)pyridin-3-yl)-5,5-dimethyl-4-oxo-2-thioxoimidazolidin-1-yl)-2-ethylphenoxy)ethyl)-2-methylpiperazin-1-yl)acetamide], the “Y (AR degradation efficiency, % of DMSO control)” value is listed as “* (0<Y<=25%)” and the DC50 was less than 100 nM.

For `CCc1cc(N2C(=S)N(c3cnc(C#N)c(C(F)(F)F)c3)C(=O)C2(C)C)ccc1OCCN1CCN(CC(=O)Nc2cc(F)cc(NC3CCC(=O)NC3=O)c2)[C@H](C)C1` (stereo partly drawn) [Example 75, 2-((R)-4-(2-(4-(3-(6-cyano-5-(trifluoromethyl)pyridin-3-yl)-5,5-dimethyl-4-oxo-2-thioxoimidazolidin-1-yl)-2-ethylphenoxy)ethyl)-2-methylpiperazin-1-yl)-N-(3-(2,6-dioxopiperidin-3-ylamino)-5-fluorophenyl)acetamide], the “Y (AR degradation efficiency, % of DMSO control)” value is on record as “* (0<Y<=25%)” and the DC50 is less than 100 nM.

As for `CCc1cc(N2C(=S)N(c3cnc(C#N)c(C(F)(F)F)c3)C(=O)C2(C)C)ccc1OCCN1CCN(CC(=O)Nc2cc(NC3CCC(=O)NC3=O)ccc2F)[C@H](C)C1` (stereo partly drawn) [Example 76, 2-((R)-4-(2-(4-(3-(6-cyano-5-(trifluoromethyl)pyridin-3-yl)-5,5-dimethyl-4-oxo-2-thioxoimidazolidin-1-yl)-2-ethylphenoxy)ethyl)-2-methylpiperazin-1-yl)-N-(5-(2,6-dioxopiperidin-3-ylamino)-2-fluorophenyl)acetamide], the “Y (AR degradation efficiency, % of DMSO control)” value is “* (0<Y<=25%)” and the DC50 is less than 100 nM.
